Data on 22 compounds can be found in patent US6699877B2 (Gruenenthal GmbH, priority 2000, dated 2004).

SMILES strings stand for the structures.

For one test, the target named is T1, glycine binding site of the NMDA receptor channel (Rattus norvegicus, UniProt P35439).
T1 construct: from tissue; host or cells: rat brain cortex and hippocampus membrane homogenate
Briefly: Receptor binding, displacement of (3H)-MDL 105.519 on rat cerebral membrane homogenates. The settings on record: 10 μmol/l test substance; 1 nmol/l (3H)-MDL 105.519. The protocol: Receptor Binding (Glycine Binding Site of the NMDA Receptor Channel)
Experiments to determine the affinity of the compounds according to the invention of Formula I to the glycine binding site of the NMDA receptor channel were carried out on cerebral membrane homogenates (homogenate of Cortex- and Hippocampus-Areal from the brain of male rats, Wistar strain) (B. M. Baron, B. W. Siegel, B. L. Harrison, R. S. Gross, C. and P. Towers, Journal of Pharmacology and Experimental Therapeutics, Vol. 279, p. 62, 1996).
For this purpose, Cortex and Hippocampus from freshly removed rats' brains were dissected, homogenized in 5 mmol/l TRIS-acetate buffer, 0.32 mol/l sacharose pH 7.4 (10 ml/g fresh weight) with a Potter homogenizer (made by Braun/Melsungen, 10 piston strokes at 500 rpm) while cooling with ice and subsequently centrifuged for 10 minutes at 1,000 g and 4° C. The first supernatant material was collected and the sediment homogenized again with […] TRIS-acetate buffer, 0.32 mol/l safcharose pH 7.4 (5 ml/g original fresh weight) using the Potter homogenizer (10 piston strokes at 500 rpm) while cooling with ice and centrifuged for 10 minutes at 1,000 g and 4° C. The resultant supernatant material was combined with the supernatant material from the first centrifugation and centrifuged at 17,000 g for 20 minutes at 4° C. The supernatant material after this centrifugation was discarded, the membrane sediment taken up with 5 mmol/l TRIS-acetate buffer pH 8.0 (20 ml/g original fresh weight) and homogenized with 10 piston strokes at 500 rpm.
The membrane homogenate was then incubated for 1 hour at 4° C. and centrifuged for 30 minutes at 50,000 g and 4° C. The supernatant material was discarded and the centrifuge tube with the membrane sediment sealed with parafilm and frozen for 24 hours at −20° C. The membrane sediment was thawed on the following day, taken up with ice-cold 5 mmol/l TRIS-acetate buffer, 0.1% saponin (w/v) pH 7.0 (10 ml/g original fresh weight), homogenized with 10 piston strokes at 500 rpm and subsequently centrifuged for 20 minutes at 50,00 g and 4° C. The resultant supernatant material was discarded, the sediment taken up in a small volume with 5 mmol/l TRIS-acetate buffer pH 7.0 (about 2 ml/g original fresh weight) and homogenized again with 10 piston strokes at 500 rpm. After determining the protein content, the membrane homogenate was adjusted to a protein concentration of 10 mg protein/ml using 5 mmol/l TRIS-acetate buffer pH 7.0 and frozen in aliquots for testing.
For the receptor binding test, aliquots were thawed, diluted 1:10 with 5 mmol/l TRIS-acetate buffer pH 7.0, homogenized with 10 piston strokes at 500 rpm using the potter homogenizer (10 piston strokes at 500 rpm) while cooling with ice and centrifuged for 60 minutes at 55,000 g at 4° C. The supernatant material was decanted, the membrane sediment adjusted to a protein concentration of 1 mg/ml with ice-cold 50 mmol/l TRIS-acetate buffer pH 7.0, homogenized again with 10 piston strokes at 500 rpm and kept in suspension in the ice bath while stirring on a magnetic stirrer. 100 μl of this membrane homogenate per 1 ml of feedstock was used in each case in the receptor binding test (0.1 mg protein/ml in the final batch).
In the binding test, 50 mmol/l TRIS-acetate buffer pH 7.0 was used as buffer and 1 nmol/l (^3H)-MDL 105.519 (B. M. Baron et al 1996) was used as radioactive ligand. The proportion of unspecific binding was determined in the presence of 1 mmol/l glycine.
In further batches, the compounds according to the invention were added in concentration series and the displacement of the radioactive ligand from its specific binding to the glycine binding site of the NMDA receptor channel determined. The respective triple batches were incubated for 120 minutes at 4° C. and then harvested to determine the radioactive ligands bound to the membrane homogenate by filtration through glass fiber filter mats (GF/B). […]
Take `O=C(O)C1CC(c2ccc(Cl)cc2)c2c(Cl)cc(Cl)cc2N1` (stereo not drawn) [Example 99, 5,7-dichloro-4-(4-chlorophenyl)-1,2,3,4-tetrahydroquinoline-2-carboxylic acid]: the “Displacement (%, 10 μmol/l) of radioactive ligand from specific binding” value is 43%.

The test is the same for the next values; noted with them: 10 μmol/l test substance; 1 nmol/l (3H)-MDL 105.519; read-out: Displacement (%, 10 μmol/l) of radioactive ligand from specific binding.
As to `CCOC(=O)C1CC(c2ccccc2F)c2c(Cl)cc(Cl)cc2N1` (stereo not drawn) [Example 26, 5,7-dichloro-4-(2-fluorophenyl)-1,2,3,4-tetrahydroquinoline-2-carboxylic Acid Ethyl Ester], the inhibition at 10 µM worked out at 43%.
For `CCOC(=O)C1CC(c2ccccc2Cl)c2c(Cl)cc(Cl)cc2N1` (stereo not drawn) [Example 33, 5,7-dichloro-4-(2-chlorophenyl)-1,2,3,4-tetrahydroquinoline-2-carboxylic Acid Ethyl Ester], the inhibition at 10 µM came out at 40%.
As for `O=C(O)C1CC(c2ccc(Br)cc2)c2cc(Cl)cc(F)c2N1` (stereo not drawn) [Example 85, 4-(4-bromophenyl)-6-chloro-8-fluoro-1,2,3,4-tetrahydroquinoline-2-carboxylic acid], the inhibition at 10 µM came to 61%.
Consider `Cc1ccc(C2CC(C(=O)O)Nc3c2ccc(Cl)c3Cl)c(C)c1` (stereo not drawn) [Example 86, 7,8-dichloro-4-(2,4-dimethylphenyl)-1,2,3,4-tetrahydroquinoline-2-carboxylic acid], for which the inhibition at 10 µM is 33%.
On to `O=C(O)C1CC(c2ccc(Cl)cc2)c2cc(Cl)c(C(F)(F)F)cc2N1` (stereo not drawn) [Example 87, 6-chloro-4-(4-chlorophenyl)-7-trifluoromethyl-1,2,3,4-tetrahydroquinoline-2-carboxylic acid], for which the inhibition at 10 µM amounted to 37%.
Same read-out and setting: under `CCOC(=O)C1Nc2ccc(C#N)cc2C2c3ccccc3CC12` (stereo not drawn) [Example 88, 2-cyano-5,6a,7,11b-tetrahydro-6H-indeno[2,1-c]quinoline-6-carboxylic acid ethyl ester] stands 34%.
For `N#Cc1ccc2c(c1)C(c1ccccc1Cl)CC(C(=O)O)N2` (stereo not drawn) [Example 89, 4-(2-chlorophenyl)-6-cyano-1,2,3,4-tetrahydroquinoline-2-carboxylic acid], the inhibition at 10 µM is 30%.
Same read-out and setting: the same measure for `CCOC(=O)C1Nc2c(Cl)cc(Br)cc2C(c2ccccc2)C1C` (stereo not drawn) [Example 90, 6-bromo-8-chloro-3-methyl-4-phenyl-1,2,3,4-tetrahydroquinoline-2-carboxylic acid ethyl ester]: 46%.
Same read-out and setting: the same measure for `Cc1ccc(C2CC(C(=O)O)Nc3c(Cl)cc(Br)cc32)c(C)c1` (stereo not drawn) [Example 91, 6-bromo-8-chloro-4-(2,4-dimethylphenyl)-1,2,3,4-tetrahydroquinoline-2-carboxylic acid]: 46%.
The same measure, in the same setting: under `O=C(O)C1CC(c2ccccc2Br)c2cc(Br)cc(Cl)c2N1` (stereo not drawn) [Example 92, 6-bromo-4-(2-bromophenyl)-8-chloro-1,2,3,4-tetrahydroquinoline-2-carboxylic acid] stands 62%; under `COc1cc(C2c3cc(SC)ccc3NC(C(=O)O)C2C)ccc1O` (stereo not drawn) [Example 93, 4-(4-hydroxy-3-methoxyphenyl)-3-methyl-6-methylsulphanyl-1,2,3,4-tetrahydroquinoline-2-carboxylic acid], 44%.
On to `COc1ccc(C2c3cc(C#N)ccc3NC(C(=O)O)C2c2ccc(OC)cc2)cc1` (stereo not drawn) [Example 94, 6-cyano-3,4-bis-(4-methoxyphenyl)-1,2,3,4-tetrahydroquinoline-2-carboxylic acid], for which the inhibition at 10 µM turned out to be 55%.
Still for that read-out and setting: under `CCOC(=O)C1Nc2c(Cl)cc(F)cc2C(c2ccc(OC)cc2)C1c1ccc(OC)cc1` (stereo not drawn) [Example 95, 8-chloro-6-fluoro-3,4-bis-(4-methoxyphenyl)-1,2,3,4-tetrahydroquinoline-2-carboxylic acid ethyl ester] stands 33%; under `CCOC(=O)C1CC(c2ccc(OCc3ccccc3)c(OC)c2)c2cc(C(C)(C)C)ccc2N1` (stereo not drawn) [Example 96, 4-(4-benzyloxy-3-methoxyphenyl)-6-tert-butyl-1,2,3,4-tetrahydroquinoline-2-carboxylic acid ethyl ester], 29%.
With `O=C(O)C1CC(c2ccc(Cl)cc2)c2c(Cl)cc(Cl)cc2N1` (stereo not drawn) [Example 97, 5,7-dichloro-4-(4-chlorophenyl)-1,2,3,4-tetrahydroquinoline-2-carboxylic acid], the inhibition at 10 µM was 39%.
As for `O=C(O)C1CC(c2cccc(Cl)c2)c2c(Cl)cc(Cl)cc2N1` (stereo not drawn) [Example 98, 5,7-dichloro-4-(3-chlorophenyl)-1,2,3,4-tetrahydroquinoline-2-carboxylic acid], the inhibition at 10 µM is 51%.
On the same count and under the same terms, the same measure for `O=C(O)C1Nc2cc(Cl)cc(Cl)c2C2c3ccccc3CCC12` (stereo not drawn) [Example 100, 1,3-dichloro-5,6,6a,7,8,12b-hexahydrobenzo[k]phenanthridine-6-carboxylic acid]: 80%; for `O=C(O)C1Nc2cc(Cl)cc(Cl)c2C2c3ccccc3CC12` (stereo not drawn) [Example 101, 1,3-dichloro-5,6a,7,11b-tetrahydro-6H-indeno[2,1-c]quinoline-6-carboxylic acid]: 98%.
As to `Cc1cc(C)cc(C2CC(C(=O)O)Nc3cc(Cl)cc(Cl)c32)c1` (stereo not drawn) [Example 102, 5,7-dichloro-4-(3,5-dimethyl-phenyl)-1,2,3,4-tetrahydroquinoline-2-carboxylic acid], the inhibition at 10 µM turned out to be 61%.

The next test relates to formalin-induced nociception. Briefly: Formalin test, rat (second/late phase). The test is classed as in vivo. Particulars: i.p., 21.5 mg/kg, late phase. The protocol:
Experiments to determine the antinociceptive activity of the compounds according to the invention of Formula I were carried out in the formalin test on male rats (Sprague-Dawley, 150-170 g).
In the formalin test, the first (early) phase (0-15 min after formalin injection) was distinguished from the second (late) phase (15-60 min after formalin injection) (D. Dubuisson, S. G. Dennis, Pain 4, 161-174 (1977)). The early phase, as a direct reaction to the formalin injection, represents a model for acute pain while the late phase is considered as a model for persistent (chronic) pain (T. J. Coderre, J. Katz, A. L. Vaccarino, R. Melzack, Pain, Vol. 52, p. 259,1993).
The compounds according to the invention were investigated in the second phase of the formalin test to obtain information about the effects of substances in chronic/inflammatory pain.
A nociceptive reaction was induced in freely moving experimental animals by a single subcutaneous formalin injection (50 μl, 5%) into the dorsal side of the back right paw, the nociceptive reaction being portrayed by the following behavioral parameters: lifting and holding the respective paw (Score 1), shaking and twitching (Score 2), licking and biting (Score 3). The different behavioral patterns triggered by the formalin injection were recorded continuously by observing the animals in the late phase of the formalin test and were weighted differently in an evaluation. Normal behavior in which the animal loads all four paws uniformly was recorded as score 0. The moment of administration prior to the formalin injection was selected according to the method of administration of the compounds according to the invention (intraperitoneal: 15 min, intravenous: 5 min). The described behavioral patterns (Score 1 to 3) in the animals are reduced and possibly even eliminated after injection of substances which have an antinociceptive effect in the formalin test. A comparisom was made with control animals which had received vehicles (solvents) prior to formalin administration. The nociceptive behavior was calculated as a so-called pain rate (PR). The various behavioral parameters received a different weighting (Factor 0, 1, 2, 3). Calculation took place at partial intervals of 3 min according to the following formula:
Substance and vehicle groups include n=10 animals in each case. The effect of the substance was determined as a percentage change versus control on the basis of the PR calculations. The ED50 calculations were made by regression analysis.
For `CCOC(=O)C1Nc2cc(Cl)cc(Cl)c2C2C=CCC12` (stereo not drawn) [Example 1, 7,9-dichloro-3a,4,5,9b-tetrahydro-3H-cyclopenta[c]quinoline-4-carboxylic Acid Ethyl Ester], the “% inhibition of formalin-induced nociception” value (shortened to “% inhibition”) came out at 88.3%.
With `CCOC(=O)C1CC(c2ccccc2F)c2c(Cl)cc(Cl)cc2N1` (stereo not drawn) [Example 26, 5,7-dichloro-4-(2-fluorophenyl)-1,2,3,4-tetrahydroquinoline-2-carboxylic Acid Ethyl Ester], the “% inhibition” value was found to be 82.6%.
The same measure, in the same setting: under `CCOC(=O)C1CC(c2ccccc2Cl)c2c(Cl)cc(Cl)cc2N1` (stereo not drawn) [Example 33, 5,7-dichloro-4-(2-chlorophenyl)-1,2,3,4-tetrahydroquinoline-2-carboxylic Acid Ethyl Ester] stands 69.0%.

Still in this test, the particulars now being: i.v., 21.5 mg/kg, late phase.
For `O=C(O)C1Nc2ccc(Cl)cc2C2C=CCC12` (stereo not drawn) [Example 4, 8-chloro-3a-4,5,9b-tetrahydro-3H-cyclo-penta[c]quinoline-4-carboxylic Acid], the “% inhibition” value was 67.1%.
